Laboratory results as given in patent publication US11083725B2 (priority 2014, dated 2021).

Test system: NHBE cells
Assay: Biolog metabolic array: substrate use by NHBE cells with or without CA09 infection
Format: cell-based, human
[1] = Control (uninfected) NHBE cells
[2] = Virus (CA09-infected, MOI 1) NHBE cells
[3] = Virus: CA09-infected NHBE cells, MOI 1, Biolog PMM2

## Dextrin
[1]
  590 nm absorbance normalized to zero hour (substrate use), 0 hr: 1.00
  590 nm absorbance normalized to zero hour (substrate use), 2 hr: 3.19
  590 nm absorbance normalized to zero hour (substrate use), 3 hr: 4.01
  590 nm absorbance normalized to zero hour (substrate use), 6 hr: 4.79
  590 nm absorbance normalized to zero hour (substrate use), 8 hr: 8.34
  590 nm absorbance normalized to zero hour (substrate use), 9 hr: 9.71
  590 nm absorbance normalized to zero hour (substrate use), 10 hr: 8.28
  590 nm absorbance normalized to zero hour (substrate use), 11 hr: 8.41
Control (uninfected) NHBE cells, Biolog PMM2, 0 hr
  Substrate use, 590 nm absorbance normalized to zero hour, 0 hr: 1.00
Control (uninfected) NHBE cells, Biolog PMM2, 5 hr
  Substrate use, 590 nm absorbance normalized to zero hour, 5 hr: 6.14
Control (uninfected) NHBE cells, Biolog PMM2, 7 hr
  Substrate use, 590 nm absorbance normalized to zero hour, 7 hr: 7.35
[2]
  590 nm absorbance normalized to zero hour (substrate use), 0 hr: 1.00
  590 nm absorbance normalized to zero hour (substrate use), 1 hr: 2.14
  590 nm absorbance normalized to zero hour (substrate use), 2 hr: 2.79
  590 nm absorbance normalized to zero hour (substrate use), 3 hr: 3.43
  590 nm absorbance normalized to zero hour (substrate use), 4 hr: 3.84
  590 nm absorbance normalized to zero hour (substrate use), 5 hr: 4.91
  590 nm absorbance normalized to zero hour (substrate use), 6 hr: 5.56
  590 nm absorbance normalized to zero hour (substrate use), 7 hr: 6.11
  590 nm absorbance normalized to zero hour (substrate use), 8 hr: 6.72
  590 nm absorbance normalized to zero hour (substrate use), 9 hr: 7.89
  590 nm absorbance normalized to zero hour (substrate use), 10 hr: 8.23
  590 nm absorbance normalized to zero hour (substrate use), 11 hr: 6.40
[3]
  590 nm absorbance normalized to zero hour (substrate use), 0 hr: 1.00
  590 nm absorbance normalized to zero hour (substrate use), 1 hr: 2.14
  590 nm absorbance normalized to zero hour (substrate use), 2 hr: 2.79
  590 nm absorbance normalized to zero hour (substrate use), 3 hr: 3.43
  590 nm absorbance normalized to zero hour (substrate use), 4 hr: 3.84
  590 nm absorbance normalized to zero hour (substrate use), 5 hr: 4.91
  590 nm absorbance normalized to zero hour (substrate use), 6 hr: 5.56
  590 nm absorbance normalized to zero hour (substrate use), 7 hr: 6.11
  590 nm absorbance normalized to zero hour (substrate use), 8 hr: 6.72
  590 nm absorbance normalized to zero hour (substrate use), 9 hr: 7.89
  590 nm absorbance normalized to zero hour (substrate use), 10 hr: 8.23
  590 nm absorbance normalized to zero hour (substrate use), 11 hr: 6.40
